Patent publication US20250313533A1, “QUINOLINE CARBOXYLIC ACID ESTER COMPOUND AND PREPARATION METHOD AND USE THEREOF” (priority 2019, published 2025)

Tests used:
[1] = test system: pathogenic bacteria causing bacterial angular leaf spot in cucumbers; experiment: In vitro bactericidal activity, bacterial angular leaf spot in cucumbers; format: cell-based, pseudomonas; settings: read-out: inhibitory rate; for inhibition at 1 ppm: dosage 1 ppm; for inhibition at 5 ppm: dosage 5 ppm
[2] = test system: pathogenic bacteria causing bacterial wilt in tobacco; experiment: whole plant or invertebrate; format: cell-based, ralstonia; settings: read-out: inhibitory rate
[3] = test system: pathogenic bacteria causing black shank in potatoes; experiment: In vitro bactericidal activity, black shank in potatoes; format: cell-based; settings: read-out: inhibitory rate; for inhibition at 1 ppm: dosage 1 ppm; for inhibition at 5 ppm: dosage 5 ppm
[4] = test system: pathogenic bacteria causing stem rot in sweet potatoes; experiment: In vitro bactericidal activity, stem rot in sweet potatoes; format: cell-based, dikia; settings: read-out: inhibitory rate; for inhibition at 1 ppm: dosage 1 ppm; for inhibition at 5 ppm: dosage 5 ppm
[5] = test system: pathogenic bacteria causing bacterial blight in rice; experiment: whole plant or invertebrate; format: cell-based, xanthomonas; settings: read-out: inhibitory rate
[6] = test system: pathogenic bacteria causing fruit blotch in watermelons; experiment: In vitro bactericidal activity, fruit blotch in watermelons; format: cell-based, acidovorax; settings: read-out: inhibitory rate; for inhibition at 1 ppm: dosage 1 ppm; for inhibition at 5 ppm: dosage 5 ppm
[7] = test system: pathogenic bacteria causing black rot in Chinese cabbages; experiment: In vitro bactericidal activity, black rot in Chinese cabbages; format: cell-based, xanthomonas; settings: Xanthomonas, read-out: inhibitory rate; for inhibition at 1 ppm: dosage 1 ppm; for inhibition at 5 ppm: dosage 5 ppm
[8] = test system: pathogenic bacteria causing bacterial wilt in cassava; experiment: organism not typed; format: cell-based; settings: read-out: inhibitory rate
[9] = test system: pathogenic bacteria causing fire blight in pears; experiment: In vitro bactericidal activity, fire blight in pears; format: cell-based, erwinia; settings: Erwinia, read-out: inhibitory rate; for inhibition at 1 ppm: dosage 1 ppm; for inhibition at 5 ppm: dosage 5 ppm
black shank in potatoes = experiment: Living crops in vivo protective activity, potatoes (root irrigation); settings: Solanum tuberosum, read-out: efficacy against black shank in potatoes; for pest or weed control at 5 ppm: dosage 5 ppm; for pest or weed control at 10 ppm: dosage 10 ppm
Description: Root irrigation was carried out on the potatoes for tests according to the designed concentration of the agents. The dosage for each plant was 200 mL and was kept consistent (also for the control). The black shank bacteria were inoculated on the second day after the application. The results were investigated according to the disease condition.

[10] = test system: indoor potted cucumber seedlings; experiment: Effect of improving growth and development of crops; format: in vivo; design: Rate of growth rate increase (%): concentration or dose not given beside the values; settings: versus blank control; for Rate of chlorophyll content increase (%) / Rate of leaf area increase (%): 14 days after application; for Rate of growth rate increase (%): plant height 14 days after application; for Rate of leaf area increase (%): second leaf
In short: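 Pot-grown seedlings kept indoors; height plus second-leaf length (base to tip) and width (upper shoulder) taken pre-treatment and at day 14. Derived: growth-rate increase %, leaf area gain, SPAD chlorophyll gain.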

cucumber seedlings = experiment: Safety for plant growth after application; format: in vivo; settings: dosage 200 ppm
In short: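 Compound applied to indoor cucumber seedlings in pots. Growth then scored: height increase rate, leaf chlorophyll, leaf area.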

[11] = test system: bacterial wilt in tobacco; experiment: whole plant or invertebrate; settings: Nicotiana tabacum, read-out: efficacy against bacterial wilt in tobacco
[12] = test system: stem rot in sweet potatoes; experiment: whole plant or invertebrate; settings: read-out: efficacy against stem rot in sweet potatoes
bacterial blight in rice = experiment: whole plant or invertebrate; settings: Oryza sativa, read-out: efficacy against bacterial blight in rice
[13] = test system: fruit blotch in watermelons; experiment: whole plant or invertebrate; settings: read-out: efficacy against fruit blotch in watermelons
[14] = test system: soft rot in Chinese cabbages; experiment: whole plant or invertebrate; settings: 48 h, read-out: efficacy against soft rot in Chinese cabbages

| Structure (SMILES) | inhibition at 1 ppm [1] [%] | inhibition at 5 ppm [1] [%] | inhibition at 1 ppm [2] [%] | inhibition at 5 ppm [2] [%] | inhibition at 1 ppm [3] [%] | inhibition at 5 ppm [3] [%] | inhibition at 1 ppm [4] [%] | inhibition at 5 ppm [4] [%] | inhibition at 1 ppm [5] [%] | inhibition at 5 ppm [5] [%] | inhibition at 1 ppm [6] [%] | inhibition at 5 ppm [6] [%] | inhibition at 1 ppm [7] [%] | inhibition at 5 ppm [7] [%] | inhibition at 1 ppm [8] [%] | inhibition at 5 ppm [8] [%] | inhibition at 1 ppm [9] [%] | inhibition at 5 ppm [9] [%] | pest or weed control at 5 ppm (black shank in potatoes) [%] | pest or weed control at 10 ppm (black shank in potatoes) [%] | further results |
| --- | --- | --- | --- | --- | --- | --- | --- | --- | --- | --- | --- | --- | --- | --- | --- | --- | --- | --- | --- | --- | --- |
| COc1cc2c(cc1F)c(=O)c(C(=O)OCCCO)cn2C1CC1 [Compound 320] | ≥ 90 | ≥ 90 | ≥ 90 | ≥ 90 | ≥ 90 | ≥ 90 | ≥ 90 | ≥ 90 | ≥ 90 | ≥ 90 | ≥ 90 | ≥ 90 | ≥ 90 | ≥ 90 | ≥ 90 | ≥ 90 | ≥ 90 | ≥ 90 | ≥ 90 | ≥ 90 | Rate of chlorophyll content increase (%) [10]: 16%; Rate of growth rate increase (%) [10]: 14%; Rate of leaf area increase (%) [10]: 9%; safety for plant growth (discoloration, necrosis, wilt, malformation) (cucumber seedlings): safe for plant growth; pest or weed control at 5 ppm [11]: ≥ 90%; pest or weed control at 10 ppm [11]: ≥ 90%; pest or weed control at 5 ppm [12]: ≥ 90%; pest or weed control at 10 ppm [12]: ≥ 90%; pest or weed control at 5 ppm (bacterial blight in rice): ≥ 90%; pest or weed control at 10 ppm (bacterial blight in rice): ≥ 90%; pest or weed control at 5 ppm [13]: ≥ 90%; pest or weed control at 10 ppm [13]: ≥ 90%; pest or weed control at 5 ppm [14]: ≥ 90%; pest or weed control at 10 ppm [14]: ≥ 90% |
| COCCCOC(=O)c1cn(C2CC2)c2cc(OC)c(F)cc2c1=O [Compound 323] | ≥ 90 | ≥ 90 | ≥ 90 | ≥ 90 | ≥ 90 | ≥ 90 | ≥ 90 | ≥ 90 | ≥ 90 | ≥ 90 | ≥ 90 | ≥ 90 | ≥ 90 | ≥ 90 | ≥ 90 | ≥ 90 | ≥ 90 | ≥ 90 | ≥ 90 | ≥ 90 | Rate of chlorophyll content increase (%) [10]: 19%; Rate of growth rate increase (%) [10]: 13%; Rate of leaf area increase (%) [10]: 13%; safety for plant growth (discoloration, necrosis, wilt, malformation) (cucumber seedlings): safe for plant growth; pest or weed control at 5 ppm [11]: ≥ 90%; pest or weed control at 10 ppm [11]: ≥ 90%; pest or weed control at 5 ppm [12]: ≥ 90%; pest or weed control at 10 ppm [12]: ≥ 90%; pest or weed control at 5 ppm (bacterial blight in rice): ≥ 90%; pest or weed control at 10 ppm (bacterial blight in rice): ≥ 90%; pest or weed control at 5 ppm [13]: ≥ 90%; pest or weed control at 10 ppm [13]: ≥ 90%; pest or weed control at 5 ppm [14]: ≥ 90%; pest or weed control at 10 ppm [14]: ≥ 90% |
| CCOCCOC(=O)c1cn(C2CC2)c2cc(OC)c(F)cc2c1=O [Compound 326] | ≥ 90 | ≥ 90 | ≥ 90 | ≥ 90 | ≥ 90 | ≥ 90 | ≥ 90 | ≥ 90 | ≥ 90 | ≥ 90 | ≥ 90 | ≥ 90 | ≥ 90 | ≥ 90 | ≥ 90 | ≥ 90 | ≥ 90 | ≥ 90 | ≥ 90 | ≥ 90 | Rate of chlorophyll content increase (%) [10]: 15%; Rate of growth rate increase (%) [10]: 13%; Rate of leaf area increase (%) [10]: 15%; safety for plant growth (discoloration, necrosis, wilt, malformation) (cucumber seedlings): safe for plant growth; pest or weed control at 5 ppm [11]: ≥ 90%; pest or weed control at 10 ppm [11]: ≥ 90%; pest or weed control at 5 ppm [12]: ≥ 90%; pest or weed control at 10 ppm [12]: ≥ 90%; pest or weed control at 5 ppm (bacterial blight in rice): ≥ 90%; pest or weed control at 10 ppm (bacterial blight in rice): ≥ 90%; pest or weed control at 5 ppm [13]: ≥ 90%; pest or weed control at 10 ppm [13]: ≥ 90%; pest or weed control at 5 ppm [14]: ≥ 90%; pest or weed control at 10 ppm [14]: ≥ 90% |
